From the supplement of paper PMC13380429

Key:
Settings in all cases: 72 h
Caco-2 [1] = experiment: cell viability relative to DMSO; higher = less toxic
Calu-3 [2] = experiment: as above
Vero E6 [3] = experiment: as above
HepG2 [4] = experiment: as above
Caco-2 [5] = experiment: drug sensitivity score (DSS) for viability; higher = more toxic; extreme values may be limits of the assay
Calu-3 [6] = experiment: as above
Vero E6 [7] = experiment: as above
HepG2 [8] = experiment: as above
Caco-2 [9] = experiment: relative viability EC50 (midpoint between 100% and the lowest measured viability); higher = less toxic
Calu-3 [10] = experiment: as above
Vero E6 [11] = experiment: as above
HepG2 [12] = experiment: as above
U2OS [13] = experiment: cell viability relative to DMSO; higher = less toxic
U2OS [14] = experiment: drug sensitivity score (DSS) for viability; higher = more toxic; extreme values may be limits of the assay
U2OS [15] = experiment: relative viability EC50 (midpoint between 100% and the lowest measured viability); higher = less toxic

SMILES | cell viability (Caco-2 [1]; 1 nM) [%] | cell viability (Caco-2 [1]; 10 nM) [%] | cell viability (Caco-2 [1]; 100 nM) [%] | cell viability (Caco-2 [1]; 1000 nM) [%] | cell viability (Caco-2 [1]; 10000 nM) [%] | cell viability (Calu-3 [2]; 1 nM) [%] | cell viability (Calu-3 [2]; 10 nM) [%] | cell viability (Calu-3 [2]; 100 nM) [%] | cell viability (Calu-3 [2]; 1000 nM) [%] | cell viability (Calu-3 [2]; 10000 nM) [%] | cell viability (Vero E6 [3]; 1 nM) [%] | cell viability (Vero E6 [3]; 10 nM) [%] | cell viability (Vero E6 [3]; 100 nM) [%] | cell viability (Vero E6 [3]; 1000 nM) [%] | cell viability (Vero E6 [3]; 10000 nM) [%] | cell viability (HepG2 [4]; 1 nM) [%] | cell viability (HepG2 [4]; 10 nM) [%] | cell viability (HepG2 [4]; 100 nM) [%] | cell viability (HepG2 [4]; 1000 nM) [%] | cell viability (HepG2 [4]; 10000 nM) [%] | drug sensitivity score (Caco-2 [5]) | drug sensitivity score (Calu-3 [6]) | drug sensitivity score (Vero E6 [7]) | drug sensitivity score (HepG2 [8]) | relative viability EC50 (Caco-2 [9]) [µM] | relative viability EC50 (Calu-3 [10]) [µM] | relative viability EC50 (Vero E6 [11]) [µM] | relative viability EC50 (HepG2 [12]) [µM] | cell viability (U2OS [13]; 1 nM) [%] | cell viability (U2OS [13]; 10 nM) [%] | cell viability (U2OS [13]; 100 nM) [%] | cell viability (U2OS [13]; 1000 nM) [%] | cell viability (U2OS [13]; 10000 nM) [%] | drug sensitivity score (U2OS [14]) | relative viability EC50 (U2OS [15]) [µM]
CCNC(=O)[C@H]1O[C@@H](n2cnc3c(N)nc(NCCc4ccc(CCC(=O)O)cc4)nc32)[C@H](O)[C@@H]1O | 99.1 | 101 | 92.1 | 96.4 | 97.3 | 95.7 | 99.2 | 99.5 | 113 | 98.9 | 104 | 109 | 98.8 | 97.9 | 95.8 | 96.2 | 102 | 116 | 97 | 96.7 | 0 | 0 | 0 | 0 | > 10 | > 10 | > 10 | > 10 | – | – | – | – | – | – | –
COc1ccc(-c2nc(C(=O)N3CCN(C)CC3)sc2-c2ccc(OC)cc2)cc1 | 99.2 | 94.6 | 108 | 102 | 102 | 97.5 | 101 | 99.7 | 109 | 106 | 107 | 104 | 102 | 103 | 95.6 | 98.7 | 95.7 | 104 | 107 | 98.5 | 0 | 0 | 0 | 0 | > 10 | > 10 | > 10 | > 10 | – | – | – | – | – | – | –
C[C@H](NC(=O)[C@@H](O)c1cc(F)cc(F)c1)C(=O)N[C@@H]1C(=O)N(C)c2ccccc2-c2ccccc21 | 101 | 89.2 | 101 | 86 | 91.3 | 98 | 87.7 | 97.9 | 101 | 100 | – | – | – | – | – | 97.1 | 95.6 | 102 | 101 | 88.2 | 0 | 0 | – | 0 | > 10 | > 10 | – | > 10 | 96 | 93.9 | 94 | 93 | 94.7 | 0 | > 10
Cc1ccc(/C=C2\CNC/C(=C\c3ccc(C)cc3)C2=O)cc1 | 103 | 98.6 | 94 | 94.1 | 38.8 | 92.7 | 112 | 105 | 104 | 79 | 101 | 97.9 | 104 | 103 | 50.2 | 119 | 99.2 | 110 | 101 | 12.4 | 4.3 | 0.5 | 2.4 | 4.8 | 2.36 | > 10 | – | 3.24 | 105 | 106 | 101 | 98 | 13.4 | 5.1 | 3
Cc1ccc2c(c1)C1(CCN(CCc3nc(-c4ccccc4)oc3C)CC1)OC(=O)N2 | 97 | 91.7 | 93.3 | 94.4 | 87.7 | 94.9 | 103 | 98.1 | 98 | 85.3 | 92.9 | 101 | 96.4 | 94.4 | 74.1 | 101 | 96 | 96.7 | 95.3 | 75.4 | 0 | 0.4 | 1.8 | 1.6 | > 10 | > 10 | – | > 10 | 98.5 | 96.5 | 96.3 | 94 | 88.8 | 0 | > 10
Cn1c(N2CCCCS2(=O)=O)nc(C(=O)NCc2ccc(F)cc2)c(O)c1=O | 85.9 | 88.6 | 88.9 | 92.7 | 81.1 | 98.4 | 89.8 | 95.6 | 102 | 97.4 | 103 | 96.6 | 100 | 102 | 85.4 | 103 | 96.9 | 105 | 106 | 46.9 | 0 | 0 | 0.1 | 2.4 | > 10 | > 10 | > 10 | 3.68 | 94.3 | 100 | 94.5 | 93.7 | 54.9 | 3.4 | –
O=C(O)c1ccc(S(=O)(=O)N(Cc2ccc(OC(F)(F)F)cc2)c2ncc(C(F)(F)F)cc2Cl)cc1 | 96.7 | 92.3 | 90.6 | 96.5 | 104 | – | – | – | – | – | 104 | 95.9 | 99.3 | 96.5 | 88.9 | 104 | 108 | 95.3 | 99.8 | 95.6 | 0 | – | 0.1 | 0 | > 10 | – | > 10 | > 10 | 99.4 | 95.1 | 97.3 | 96.2 | 97.2 | 0 | > 10
CCOc1ccccc1N/N=C1/C(=O)N(c2nc(-c3ccccc3)cs2)N=C1C [BAM7] | 94.6 | 105 | 88.2 | 103 | 88.7 | 96.5 | 95.8 | 83.7 | 97.3 | 99.6 | 98.8 | 101 | 95.2 | 95.2 | 94.8 | 106 | 96.2 | 99.1 | 92.2 | 82.6 | 0 | 0 | 0 | 0.9 | > 10 | > 10 | > 10 | > 10 | – | – | – | – | – | – | –
CO[C@H]1CC[C@H](N2C(=O)CNc3ncc(-c4ccc(C(C)(C)O)nc4)nc32)CC1 [CC-223] | 102 | 104 | 99.4 | 81.9 | 42.7 | 94.6 | 87.1 | 106 | 74.4 | 41.6 | 110 | 104 | 99.8 | 92.5 | 52.7 | 103 | 95.6 | 98.9 | 94.6 | 42.9 | 5.8 | 6.6 | 3.7 | 4 | 1.36 | 1.11 | – | 2.39 | 99.1 | 95.6 | 102 | 97.7 | 56 | 2.6 | –
COc1ccc(-n2c(C)c([N+](=O)[O-])c3ccc(O)cc32)cc1 [ID-8] | 98.3 | 111 | 91 | 92.2 | 94.5 | 99.7 | 97.6 | 91.1 | 79.9 | 88.4 | 96.3 | 103 | 94.2 | 94.5 | 92.1 | 99.3 | 102 | 97.4 | 106 | 93.6 | 0 | 2.6 | 0 | 0 | > 10 | > 10 | > 10 | > 10 | – | – | – | – | – | – | –
Cc1c[nH]c2ncnc(N3CCC(CN)(C(=O)Nc4cccc(OC(=O)N(C)C)c4)CC3)c12 [LX7101] | 88.3 | 97.8 | 98.9 | 96 | 82.4 | 82.4 | 99.4 | 110 | 125 | 114 | 93.2 | 100 | 92.4 | 102 | 112 | 99.8 | 99.2 | 101 | 102 | 86.4 | 0.9 | 0 | 0 | 0.1 | > 10 | > 10 | > 10 | > 10 | 98 | 97.4 | 98.5 | 94 | 70.9 | 2.2 | –
Cc1cc(C)c2nc(-c3ccccn3)cc(C(=O)Nc3ccc(S(=O)(=O)Nc4onc(C)c4C)cc3)c2c1 [ML193] | 95.2 | 90.1 | 101 | 83.7 | 114 | 97 | 93.5 | 96 | 86.3 | 94.9 | – | – | – | – | – | 89.7 | 108 | 100 | 97.2 | 104 | 0 | 0 | – | 0 | > 10 | > 10 | – | > 10 | 100 | 98.7 | 103 | 98 | 98.4 | 0 | > 10
O=C(CN1CCN(C(=O)c2ccco2)CC1)Nc1cc(C(F)(F)F)ccc1Cl [ML348] | 96.3 | 89 | 97 | 96.1 | 91.1 | 118 | 95.7 | 102 | 104 | 95.5 | 98.4 | 98.8 | 94 | 98.3 | 94.6 | 96.9 | 98 | 93.1 | 106 | 104 | 0 | 0 | 0 | 0 | > 10 | > 10 | > 10 | > 10 | – | – | – | – | – | – | –
C[C@@H]1O[C@@H](O[C@H]2[C@H](Oc3cc(O)c4c(c3)O[C@H](c3ccc(O)cc3)CC4=O)O[C@H](CO)[C@@H](O)[C@@H]2O)[C@H](O)[C@H](O)[C@H]1O [Naringin (Naringoside)] | 92.3 | 95.9 | 97.9 | 96.3 | 102 | 110 | 96.9 | 98.8 | 103 | 98.8 | – | – | – | – | – | 104 | 112 | 90 | 97.7 | 98.9 | 0 | 0 | – | 0 | > 10 | > 10 | – | > 10 | 99.6 | 94.7 | 101 | 98.2 | 108 | 0 | > 10
O=C(O)C1CN(Cc2ccc(-c3nc4cc(Cc5ccccc5F)ccc4s3)c(F)c2)C1 [TC-SP-14] | 97 | 81.7 | 84.2 | 99.1 | 81.8 | 91.2 | 90.5 | 102 | 95.1 | 107 | – | – | – | – | – | 109 | 121 | 90.3 | 119 | 90 | 0 | 0 | – | 0 | > 10 | > 10 | – | > 10 | 99.4 | 97.9 | 98.8 | 102 | 101 | 0 | > 10
